Active and inactive are the calls of the source.
What was measured:
Assay type in all cases: functional, organism-based
[1] = tested on: Schizosaccharomyces pombe; assay: Antifungal activity against Schizosaccharomyces pombe DSM 70572 assessed as inhibition of fungal growth incubated for overnight by serial dilution assay
[2] = tested on: Staphylococcus aureus; assay: Antibacterial activity against Staphylococcus aureus DSM 346 assessed as inhibition of bacterial growth incubated for overnight by serial dilution assay
[3] = tested on: Pseudomonas aeruginosa; assay: Antibacterial activity against Pseudomonas aeruginosa DSM PA14 assessed as inhibition of bacterial growth incubated for overnight by serial dilution assay
[4] = tested on: Mycolicibacterium smegmatis; assay: Antibacterial activity against Mycobacterium smegmatis ATCC 700084 assessed as inhibition of bacterial growth incubated for overnight by serial dilution assay
[5] = tested on: Mucor hiemalis; assay: Antifungal activity against Mucor hiemalis DSM 2656 assessed as inhibition of fungal growth incubated for overnight by serial dilution assay
[6] = tested on: Rhodotorula glutinis; assay: Antifungal activity against Rhodotorula glutinis DSM 10134 assessed as inhibition of fungal growth incubated for overnight by serial dilution assay
[7] = tested on: Chromobacterium violaceum; assay: Antibacterial activity against Chromobacterium violaceum DSM 30191 assessed as inhibition of bacterial growth incubated for overnight by serial dilution assay
[8] = tested on: Bacillus subtilis; assay: Antibacterial activity against Bacillus subtilis DSM 10 assessed as inhibition of bacterial growth incubated for overnight by serial dilution assay
[9] = tested on: Wickerhamomyces anomalus; assay: Antifungal activity against Pichia anomala DSM 6766 assessed as inhibition of fungal growth incubated for overnight by serial dilution assay
[10] = tested on: Escherichia coli; assay: Antibacterial activity against Escherichia coli DSM 1116 assessed as inhibition of bacterial growth incubated for overnight by serial dilution assay
[11] = tested on: Candida albicans; assay: Antifungal activity against Candida albicans DSM 1665 assessed as inhibition of fungal growth incubated for overnight by serial dilution assay
[12] = tested on: Acinetobacter baumannii; assay: Antibacterial activity against Acinetobacter baumannii […] DSM 30008 assessed as inhibition of bacterial growth incubated for overnight by serial dilution assay

Measured: Activity

CC1=C(O)C(=O)C(c2c(C=O)c(O)c(O)c3c2[C@@H](C(C)C)CC[C@@H]3C)=C(O)C1=O
inactive: all assays above

Cc1c(O)c(O)c(C(C)C)c2c1CCC(C(=O)O)=C2
inactive: all assays above

CC(C)[C@H]1CC[C@H](C)c2c(O)c(O)c3c(c21)C1=C(OC3)C(=O)C2=C(OCc3c(O)c(O)c4c(c32)[C@@H](C(C)C)CC[C@@H]4C)C1=O
inactive: all assays above

CC(C)[C@H]1CC[C@H](C)c2c(O)c(O)c(C=O)c(C3=C(O)C(=O)C4=C(OCc5c(O)c(O)c6c(c54)[C@@H](C(C)C)CC[C@@H]6C)C3=O)c21
inactive: all assays above

CC(C)[C@H]1CC[C@H](C)c2c(O)c(O)c(CO)c(C3=C(O)C(=O)C4=C(OCc5c(O)c(O)c6c(c54)[C@@H](C(C)C)CC[C@@H]6C)C3=O)c21
inactive: all assays above

O=c1cc(O)cc(C2c3c(cc(/C=C/c4ccc(O)c(O)c4)oc3=O)OC2c2ccc(O)c(O)c2)o1 (stereo not given)
inactive: all assays above

CC(C)[C@H]1CC[C@H](C)c2c(O)c(O)c(C=O)c(C3=C(O)C(=O)C(c4c(C=O)c(O)c(O)c5c4[C@@H](C(C)C)CC[C@@H]5C)=C(O)C3=O)c21
inactive: all assays above

O=c1cc(O)cc(/C=C/c2ccc(O)c(O)c2)o1
inactive: all assays above

CC(C)[C@H]1CC[C@H](C)c2c(O)c(O)c(C=O)c(C3=C(O)C(=O)C=C(O)C3=O)c21
inactive: all assays above

CC(C)[C@H]1CC[C@H](C)C2=C1C=C(C(=O)O)CC2
inactive: all assays above

From ChEMBL document CHEMBL5233291, “Calamene-Type Sesqui-, Mero-, and Bis-sesquiterpenoids from Cultures of Heimiomyces sp., a Basidiomycete Collected in Africa” (J Nat Prod, 2023)
